# From article PMC6014988, “Precision therapeutic targeting of human cancer cell motility” (Nature Communications, 2018)
# Experiments:
# [1] = Three-day MTT cell growth inhibition assay, 1532CPTX; type: cell-based, human; conditions: human, 1532CPTX cells
# 1532CPTX = assay: as above; type: cell-based, human; conditions: Homo sapiens, 72 h, 3 days
# [2] = test system: p38 MAPK and HSP27 phosphorylation; assay: Phosphorylation of p38 MAPK and HSP27 in PC3-M cells, Western blot; type: cell-based, human; conditions: 50 µM, 24 hours, then TGFβ
# Method: Supplementary Figure 9. […] (a) Depiction of […]
# established MKK4 pathway regulating human PCa cell metastasis. […]
# to MKK4, as measured by fluorescence-based thermal shift assay. Values are the mean±SD (of N=2 replicates) increase in melting temperature (ΔTm) of purified recombinant MKK4 induced by the indicated concentrations of KBU2046 or genistein. […]
# in an in vitro kinase assay. The indicated concentrations of KBU2046 were added to recombinant activated MKK4, and its ability to phosphorylate kinase dead p38α MAPK (K53A) was measured by Western blot for total (p38 MAPK) and phosphorylated (pp38 MAPK) forms of […]
# HSP27 in cells. PC3-M cells were pre-treated for 24 hours with 50 µM KBU2046 or genistein, as indicated, then with TGFβ, and Western blot performed. All findings are from a single experiment, with similar findings in identical separate experiments, repeated at least once. […]
# [3] = target: T1, General transcription factor II-I (Homo sapiens, UniProt P78347); assay: ProtoArray binding, General transcription factor II-I; conditions: 10 fold excess free KBU2046
# T1 construct: purchased Invitrogen
# T1 sequence (P78347 whole entry): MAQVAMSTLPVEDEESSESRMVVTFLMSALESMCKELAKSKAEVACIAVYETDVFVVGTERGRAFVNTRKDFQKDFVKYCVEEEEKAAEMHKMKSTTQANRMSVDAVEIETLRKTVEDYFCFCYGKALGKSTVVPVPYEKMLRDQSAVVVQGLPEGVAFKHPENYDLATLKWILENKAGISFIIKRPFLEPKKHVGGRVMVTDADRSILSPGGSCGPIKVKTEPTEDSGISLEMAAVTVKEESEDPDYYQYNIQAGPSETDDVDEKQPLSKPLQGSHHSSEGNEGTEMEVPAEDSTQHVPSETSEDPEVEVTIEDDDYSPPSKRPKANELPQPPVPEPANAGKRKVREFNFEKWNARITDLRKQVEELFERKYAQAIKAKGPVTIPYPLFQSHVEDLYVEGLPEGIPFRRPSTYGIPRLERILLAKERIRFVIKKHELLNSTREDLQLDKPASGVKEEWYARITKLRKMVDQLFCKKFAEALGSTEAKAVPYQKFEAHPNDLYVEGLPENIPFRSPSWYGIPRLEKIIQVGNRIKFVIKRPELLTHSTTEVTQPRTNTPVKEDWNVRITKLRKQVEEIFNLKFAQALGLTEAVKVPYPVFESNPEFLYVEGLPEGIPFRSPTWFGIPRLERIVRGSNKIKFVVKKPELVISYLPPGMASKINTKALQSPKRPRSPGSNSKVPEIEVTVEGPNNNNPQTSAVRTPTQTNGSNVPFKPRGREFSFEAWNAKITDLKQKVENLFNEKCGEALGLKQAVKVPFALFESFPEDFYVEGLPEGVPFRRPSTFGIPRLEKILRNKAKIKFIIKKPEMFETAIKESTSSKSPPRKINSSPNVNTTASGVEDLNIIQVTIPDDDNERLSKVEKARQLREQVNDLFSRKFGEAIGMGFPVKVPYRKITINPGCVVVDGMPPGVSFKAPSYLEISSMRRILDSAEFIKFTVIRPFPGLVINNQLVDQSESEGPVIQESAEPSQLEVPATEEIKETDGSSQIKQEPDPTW
# Method: The ProtoArray® assay, using the Human Protein Microarray platform, was performed by Invitrogen. […]
# (d) Protein array hybridization. KBU2046-biotin was hybridized to ProtoArray® Human Protein Microarray’s at 0.5 and 10 µM with and without 10 fold excess free KBU2046. We first sought proteins that met the following criteria, and did so at both 0.5 and 10 µM concentrations of KBU2046-biotin (in the absence of free KBU2046): Z-Score greater than 2.5, Z-Factor greater than 0.5, CI P-value less than 0.05, negative control value <2,000 (relative fluorescence units; RFUs), and a signal/negative control signal of >10 and >5 for 10 µM and 0.5 µM conditions, respectively. This yielded 3 proteins, shown in table, for an initial hit rate of 0.03%. We then required free KBU2046 to inhibit binding by >75%. […]
# There were two additional notable findings from protein array studies. First, the positive control used in protein arrays was staurosporine. Staurosporine is similar to genistein in that both are small compound natural products that are broad spectrum kinase inhibitors. In contrast to the lack of binding by KBU2046-biotin, staurosporine bound to 214 proteins at levels that were >/= 10 fold above that of background. The vast majority of these proteins were kinases. Second, both HSP90β and CDC37 were present on the protein arrays, and were not bound by KBU2046-
# PC3-M cells = assay: Cell invasion of PC3-M cells with altered HSP90β; type: cell-based, human
# Method: Fig. 4 KBU2046 decreases phosphorylation of HSP90β. a Probing for KBU2046-induced changes in protein phosphorylation. PC3-M or PC3 cells were pre-treated with 10 µM KBU2046 for 3 days, then with ±TGFβ and the resultant cell lysate probed for changes in protein phosphorylation with the KinomeView® assay. The depicted western blot utilizes KinomeView® phospho-motif antibody, BL4176; the blue arrow denotes an 83 kDa band whose phosphorylation is inhibited by KBU2046 (see Supplementary Fig. 10 for complete KinomeView® assay screening data). b Proteomic analysis. PC3 cells were pre-treated with KBU2046 or vehicle, then with TGFβ, proteins from the resultant cell lysate were immunoprecipitated with BL4176, and HSP90β was identified by LC-MS/MS analysis (see Supplementary Fig. 12 for expanded proteomic assay data). The phospho-motif recognized by the antibody is underlined; S*—denotes Ser226, whose phosphorylation is decreased by KBU2046. c, d The phospho-mimetic changes in HSP90β Ser^226 structure regulate human PCa cell invasion and KBU2046 efficacy. PC3-M cells were transfected with S226A-, S226D-, or WT-HSP90β, or empty vector (VC), treated with KBU2046 or vehicle, and cell invasion measured. Values are the mean ± SEM of a representative experiment of multiple experiments (all in replicates of N = 3); *denotes t-test P value <0.05 between bracketed conditions, or compared to VC […]
# Boyden chamber cell invasion assays were performed as previously described by us[30], using either denatured collagen (BD Biosciences) or type IV human collagen (BD Biosciences), with all experiments repeated, each in N = 4 replicates. In some experiments, as indicated, cells were transfected with an expression plasmid, using Lipofectamine 2000™ (Invitrogen), or with siRNA, using DharmaFect Duo (Thermo Scientific) and co-transfected with β-Galactosidase (Plasmid pCMV•SPORT-βgal; Life Technology).
# Supplementary Figure 13. Changes in HSP90β Ser226 structure as well as HSP90β expression regulate PCa cell invasion and KBU2046 efficacy. (a) Levels of HSP90β expression after transfection of cells. In manuscript Figs 4c and d, PC3-M cells were transfected with S226A-, S226D-, or WT-HSP90β, or empty vector (VC) and resultant effects upon cell invasion and KBU2046 efficacy measured. Depicted above are associated Western blots probing for HSP90β, FLAG (transfected HSP90β was FLAG-tagged) and GAPDH. (b-d) Knockdown of HSP90β decreases cell invasion and abrogates KBU2046 efficacy. PC3-M cells were transfected with siRNA to HSP90β (siHSP90b) or non-targeting siRNA (siCO). (b) The level of HSP90β (HSP90b) and HSP90α (HSP90a) transcript levels were measured by qRT/PCR, and expressed relative to that of GAPDH. (c) The level of HSP90β protein expression was measured by Western blot. (d) Cells were treated with KBU2046 (46) or vehicle control, and cell invasion measured. Values are the mean±SEM of a representative experiment of multiple experiments (all in replicates of N=3). *denotes t-test P value </= 0.05 compared to siCO.
structure (smiles),measurement,setting,value
"O=C1c2ccccc2OCC1c1ccc(F)cc1 (racemic) [KBU2046, (±)-3(4-fluorophenyl)chroman-4-one]","viability at 3 days, 50 µM",[1],99.4%
same,IC20,1532CPTX,> 50 µM
same,IC50,1532CPTX,> 50 µM
same,downstream phosphorylation of p38 MAPK and HSP27,[2],did not inhibit downstream phosphorylation
same,% inhibition by competitor,[3]; 0.5 uM KBU2046-biotin,64%
same,% inhibition by competitor,[3]; 10 uM KBU2046-biotin,43%
same,cell invasion,PC3-M cells; (S226A)-HSP90β transfected cells,does not further inhibit cell invasion
same,cell invasion,PC3-M cells; (S226D)-HSP90β transfected cells,did not significantly inhibit cell invasion
same,cell invasion,PC3-M cells; VC and WT-HSP90β cells,significantly inhibited invasion
same,cell invasion,PC3-M cells; VC cells,significantly inhibits invasion
same,anti-invasion efficacy,PC3-M cells; siRNA-mediated HSP90β knockdown,abrogated KBU2046 efficacy
